Assay results taken from patent US10301295B2, “Herbicidal compounds” (Syngenta Participations AG, priority 2014, dated 2019).
Where two headings read alike, the source gives them in different places.

Experiments:
Format in all cases: in vivo
Avena fatua (AVEFA) = assay: Glasshouse assay for herbicidal activity, pre-/post-emergence (percentage phytotoxicity); conditions: Avena fatua, Rate 250 g/ha, 100%=total damage, 0%=no damage
Method in brief: (§1)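 Seeds sown in standard soil in pots, grown 1 day (pre-emergence) or ~12 days (post-emergence) before treatment. Glasshouse: warm species 24/18 °C, cool species 20/16 °C day/night, 16 h light, 65% humidity, watered twice daily. Visual phytotoxicity scored 15DAA (post) or 20DAA (pre); 0% none, 100% total damage.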

[1] = test system: Echinochloa crus-galli (ECHCG); assay: as above; conditions: Echinochloa crus-galli, Rate 250 g/ha, 100%=total damage, 0%=no damage
Method in brief: as §1

[2] = test system: Alopecurus myosuroides (ALOMY); assay: as above; conditions: Alopecurus myosuroides, Rate 250 g/ha, 100%=total damage, 0%=no damage
Method in brief: as §1

Lolium perenne (LOLPE) = assay: as above; conditions: Lolium perenne, Rate 250 g/ha, 100%=total damage, 0%=no damage
Method in brief: as §1

wheat = assay: Post-emergence herbicidal activity against cereal crops (wheat) +/- safener, crop selectivity; conditions: 100%=total damage to plant, 0%=no damage; for Post-emergence herbicidal activity against wheat (percentage phytotoxicity), +CQC: 250 g/ha, plus safener cloquintocet-mexyl (CQC) applied at 50 g/ha; for percent phytotoxicity (crop damage) to wheat at 250 g/ha: Triticum aestivum, 360 h, without safener, read-out: Post-emergence herbicidal activity against wheat (percentage phytotoxicity), Wheat - CQC
Method in brief: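 Test plants raised in pots in a glasshouse (24/18 °C warm or 20/16 °C cool species day/night, 16 h light, 65% humidity) and treated post-emergence about 12 days after sowing. Visual percentage phytotoxicity scored 15 days after application (0% = no damage, 100% = total damage).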

[3] = post-emergence, 360 h, post-emergence, visual assessment 15 DAA, read-out: Post-emergence herbicidal activity (percentage phytotoxicity), AVEFA POST
[4] = pre-emergence, 480 h, pre-emergence, visual assessment 20 DAA, read-out: Pre-emergence herbicidal activity (percentage phytotoxicity), AVEFA PRE
[5] = post-emergence, 360 h, post-emergence, visual assessment 15 DAA, read-out: Post-emergence herbicidal activity (percentage phytotoxicity), ECHCG POST
[6] = pre-emergence, 480 h, pre-emergence, visual assessment 20 DAA, read-out: Pre-emergence herbicidal activity (percentage phytotoxicity), ECHCG PRE
[7] = 360 h, post-emergence, visual assessment 15 DAA, read-out: Post-emergence herbicidal activity (percentage phytotoxicity), ALOMY POST
[8] = 480 h, pre-emergence, visual assessment 20 DAA, read-out: Pre-emergence herbicidal activity (percentage phytotoxicity), ALOMY PRE
[9] = post-emergence, 360 h, post-emergence, visual assessment 15 DAA, read-out: Post-emergence herbicidal activity (percentage phytotoxicity), LOLPE POST
[10] = pre-emergence, 480 h, pre-emergence, visual assessment 20 DAA, read-out: Pre-emergence herbicidal activity (percentage phytotoxicity), LOLPE PRE

SMILES | pest or weed control at 250 g/ha (Avena fatua (AVEFA); [3]) | pest or weed control at 250 g/ha (Avena fatua (AVEFA); [4]) | pest or weed control at 250 g/ha [1, 5] | pest or weed control at 250 g/ha [1, 6] | pest or weed control at 250 g/ha [2, 7] | pest or weed control at 250 g/ha [2, 8] | pest or weed control at 250 g/ha (Lolium perenne (LOLPE); [9]) | pest or weed control at 250 g/ha (Lolium perenne (LOLPE); [10]) | Post-emergence herbicidal activity against wheat (percentage phytotoxicity), +CQC (wheat) | percent phytotoxicity (crop damage) to wheat at 250 g/ha (wheat)
Cc1cc(C)c(C2C(=O)CC(CCNC(=O)Nc3cc(C(C)(C)F)ncn3)C2=O)c(C)c1 (centres unmarked) [Compound A16] | 100% | 70% | 80% | 100% | 90% | 80% | 90% | 90% | 50% | 80%
Cc1cc(C)c(C2C(=O)CC(CCNS(=O)(=O)c3ccc(OC(F)(F)F)cc3)C2=O)c(C)c1 (centres unmarked) [Compound A85] | 80% | 80% | 40% | 70% | 60% | 70% | 50% | 80% | 10% | 20%
Cc1cc(C)c(C2C(=O)CC(CCNC(=O)N(C)C(C)(C)C)C2=O)c(C)c1 (centres unmarked) [Compound A14] | 90% | 90% | 100% | 100% | 80% | 90% | 100% | 100% | 30% | 60%
Cc1cc(C)c(C2C(=O)CC(CCNC(=O)NC(=O)c3cccc(C(F)(F)F)c3)C2=O)c(C)c1 (centres unmarked) [Compound A66] | 30% | 0% | 60% | 10% | 70% | 20% | 80% | 40% | 40% | 80%
Cc1cc(C)c(C2C(=O)CC(CCNC(=S)Nc3ccccc3)C2=O)c(C)c1 (centres unmarked) [Compound A90, 1-[2-[2,4-dioxo-3-(2,4,6-trimethylphenyl)cyclopentyl]ethyl]-3-phenyl-thiourea] | 60% | 0% | 60% | 40% | 20% | 0% | 20% | 70% | 20% | 0%
Cc1cc(C)c(C2C(=O)CC(CCNC(=O)N3CCOCC3)C2=O)c(C)c1 (centres unmarked) [Compound A47] | 70% | 0% | 60% | 80% | 60% | 60% | 30% | 50% | 0% | 50%
Cc1cc(C)c(C2C(=O)CC(CCNS(=O)(=O)c3ccc(Cl)c(Cl)c3)C2=O)c(C)c1 (centres unmarked) [Compound A78] | 80% | 0% | 30% | 20% | 40% | 60% | 60% | 70% | 0% | 0%
Cc1cc(C)c(C2C(=O)CC(CCNC(=O)NC(=O)c3ccc(OC(F)(F)F)cc3)C2=O)c(C)c1 (centres unmarked) [Compound A71] | 50% | 20% | 80% | 0% | 20% | 30% | 80% | 40% | 20% | 80%
